The subject of experiment [1] is melanoma cells A375. Briefly: Cell killing (CCK8) of Cobimetinib against A375 after FAK silencing. The note with it: with FAK silencing (FAK siRNA) vs control siRNA, 72 h. The experiment is classed as cell-based. As to the method: In the in vitro assay, different concentrations of Cobimetinib were given under the condition of silencing the FAK gene. In A375 cells, the cell killing curve was obtained and the IC50 value was determined. The cytotoxic effect of Cobimetinib in the control group and the FAK siRNA group was compared to explore the effect of the FAK target on the cytotoxicity of Cobimetinib. The cell killing curve of Cobimetinib at different concentrations in melanoma cells A375 under the condition of FAK gene silencing was detected in the assay and the IC50 value was determined. A 96-well cell plate was seeded with 5000 A375 cells/well, and two groups were transfected with control siRNA or FAK siRNA respectively. Cobimetinib was added 24 hours after the transfection. The highest concentration was 1 μM. A total of 6 concentrations were set for 3-fold gradient dilution. The lowest concentration of Cobimetinib was 4.115 nM. After the drug and cells were incubated for 72 hours, 10 μl CCK8 solution was added to each well and incubated at 37 degrees in a 5% carbon dioxide incubator for 2 hours. A microplate reader with the absorbance wavelength set to 450 nm was used for reading. The values read were compared to the DMSO control group and plotted using Graphpad 8.0.

Experiment [2] concerns endoplasmic reticulum stress-related proteins GRP78 and Phospho-eIF2α (Ser51) in A375 cells. Description: Endoplasmic reticulum stress protein expression in A375 after FAK silencing plus Cobimetinib. Type of experiment: cell-based. The note with it: FAK siRNA 50 nM, then Cobimetinib 6 hours. As to the method:
A375 cells were transfected with control siRNA or FAK siRNA at a final concentration of 50 nM. After 24 hours of transfection, different concentrations of Cobimetinib were given for 6 hours. The protein expression levels of FAK and endoplasmic reticulum stress-related proteins GRP78 and Phospho-eIF2α (phosphorylated-Phospho-eIF2α) (Ser51) were detected.

Experiment [3] concerns Calreticulin (ICD target) in A375 cells. Briefly: Calreticulin immunofluorescence in A375 after FAK silencing plus Cobimetinib. The experiment is classed as cell-based. The settings on record: FAK siRNA 50 nM, then 10 nM Cobimetinib 48 hours. As for the experimental part: A375 cells were transfected with control siRNA or FAK siRNA at a final concentration of 50 nM. After 24 hours, A375 cells were treated with 10 nM Cobimetinib for 48 hours and then calreticulin was detected by immunofluorescence.

Experiment [4] concerns CT-26 mouse colorectal cancer cell subcutaneous allograft tumor. Description: In vivo antitumor efficacy, CT-26 subcutaneous allograft tumor model (Example 3). The settings on record: for TGI (tumor growth inhibition rate) / Tumor volume on day 15: 15th day after group administration; for TGI (tumor growth inhibition rate): vs control group; for Tumor volume on day 15: Cobimetinib 7.5 mg/kg ip TIW, IN10018 12.5 mg/kg po QD, PDL1 antibody 5 mg/kg ip BIW, mean ± standard error. Details: species or system BALB/c mice; TGI (tumor growth inhibition rate): dose or concentration left out as unconfirmed. An excerpt:
Mice: Female BALB/c mice aged 6-8 weeks were purchased from Beijing Weitong Lihua Laboratory Animal Co., Ltd. The assay began after the animals arrived and were adapted to the experimental environment. The animals were kept in IVC (independent ventilation system) cages (6 per cage) in an SPF-level animal room. All cages, bedding and drinking water must be sterilized before use. All experimenters should wear protective clothing and latex gloves when operating in the animal room. The animal information cards for each cage should indicate the number of animals in the cage, gender, strain, receipt date, dosing regimen, assay number, group and start date of the assay. Cages, feed and drinking water were changed twice a week. The breeding environment and lighting conditions are as follows:
5% CO2 incubator. Two to three times a week, routine digestion and subculture were performed with trypsin-EDTA. When the cells were in the exponential growth phase and the saturation was 80%-90%, the cells were harvested, counted, and inoculated.
0.1 mL of cell suspension containing 3×10^5 cells was subcutaneously inoculated on the right back of each mouse. When the tumor volume reached ˜58 mm^3 (10 days after cell inoculation), the mice were randomly divided into groups for drug administration according to the tumor volume.
The diameter of tumor was measured with vernier caliper, 3 times a week. The formula for calculating the tumor volume is: V=0.5×a×b^2, where a and b represent the long and short diameters of the tumor respectively.
Animals were considered dead when they died naturally or when the tumor volume was greater than 2500 mm^3. The survival rate and life cycle of the animals after administration were calculated based on this.
Statistical analysis was performed based on tumor volume and tumor weight at the end of the trial using Prism Graphpad software. Comparisons between multiple groups were analyzed using the Two-way ANOVA test, and P<0.05 was considered as having significant differences.
The survival rate of animals was analyzed using the Gehan-Breslow-Wilcoxon test, and P<0.05 was considered as having significant difference.

In experiment [5] the test system is colon cancer CT-26 cell line. Briefly: In vitro efficacy of IN10018 and HL-085 in CT26 cells (microscopy, flow cytometry). The experiment is classed as cell-based, mouse. The note with it: 48 hours, IN10018 5 μM, HL-085 1 μM. As to the method:
CT26 cells were cultured with RPMI 1640 (Shanghai Yuanpei, Cat No.: L210KJ, Lot No.: F210916)+10% FBS (Gibco, Cat No.: 10099-141c, Lot No.: 2158737cp) and passaged twice. When the cells were in good condition, the culture plates were placed in 24-well plates. After 24 hours of cell spreading, four groups were set up. The first group was the control group, to which culture medium was added, the second group was IN10018 at a concentration of 5 μM, the third group was HL-085 at a concentration of 1 μM, and the fourth group was IN10018 (5 μM) combined with HL-085 (1 μM). The drugs were mixed and cultured at 37° C. in a 5% CO2 incubator for 48 hours.
After 48 hours of drug action, cells were observed under a microscope and photographed to confirm the cell killing effect. Then the cells were collected for flow analysis, and the cells were washed twice with flow buffer (PBS+2% FBS) and 0.5 μl AF647. Anti-calreticulin antibody (abeam) was added to each well and mixed. The mixture was incubated at 4° C. in the dark, flow buffer was added after 20 min of incubation, the annexin staining kit (Beyotime) was used and 195 μl […] was added. After pipetting and mixing with the cells, 5 μl Annexin-V-FITC antibody was added and gently mixed. Finally, 10 μl PI dye was added and mixed. […]

The structures appear in SMILES notation.

Take `O=C(c1ccc(F)c(F)c1Nc1ccc(I)cc1F)N1CC(O)([C@@H]2CCCCN2)C1` [Cobimetinib]: the “cell killing effect of cobimetinib on melanoma cells A375” value in experiment [1] is reported as “significantly enhance”. Also, the “endoplasmic reticulum stress of A375” value in experiment [2] is on record as “Significantly Up-Regulated”. Besides, the “exposure and release of the DAMPs marker calreticulin” value in experiment [3] was “significantly enhance”. In experiment [4], the “TGI (tumor growth inhibition rate)” value stood at 59.2% and the “Tumor volume on day 15” value is reported as 1261.3±565.4 mm^3. For the same compound, the “Survival rate on Day 31” value in experiment [4] (31st day after group administration, death = natural death or tumor volume > 2500 mm^3, Cobimetinib 7.5, IN10018 12.5, PDL1 antibody 5 mg/kg) amounted to 16.7%. The Median survival time in experiment [4] (up to the 31st day after group administration, Cobimetinib 7.5, IN10018 12.5, PDL1 antibody 5 mg/kg) came out at 22 days.
In the case of `O=C(NOCCO)c1cc2scnc2c(F)c1Nc1ccc(I)cc1F` [HL-085], the “cell status / cell killing effect observed under a microscope” value in experiment [5] is recorded as “poor”.
For `COc1cc(C(=O)NC2CCN(C)CC2)c(F)cc1Nc1ncc(C(F)(F)F)c(Oc2cccc3c2C(=O)N(C)C3)n1` [IN10018], in experiment [4], the “TGI (tumor growth inhibition rate)” value is on record as 19.9% and the “Tumor volume on day 15” value is 2418.8±436.5 mm^3. In experiment [5], the “cell status / cell killing effect observed under a microscope” value is given as “better”.

For the origin of these results see patent US20250099450A1, “PHARMACEUTICAL COMBINATION FOR TREATING TUMORS AND USE THEREOF” (INXMED (NANJING) CO., LTD, priority 2022, published 2025).
